Activity calls are given as the source filed them. The rule behind the calls is not given here.
Tests used:
[1] = tested on: Streptococcus pneumoniae; assay: Antibacterial activity against 5 x 10^6 CFU Streptococcus pneumoniae serotype 2 infected in semitherapeutic C57BL/6 mouse model assessed as bacterial count in lung at 6 mg/kg, ip measured after 2 days post infection; assay type: functional; conditions: route intraperitoneal
[2] = tested on: Streptococcus pneumoniae; assay: Antibacterial activity against 5 x 10^6 CFU Streptococcus pneumoniae serotype 2 infected in semitherapeutic C57BL/6 mouse model assessed as bacterial count in lung at 6 mg/kg, ip measured after 3 days post infection; assay type: functional; conditions: route intraperitoneal
[3] = tested on: Streptococcus pneumoniae; assay: Antibacterial activity against low dose 5 x 10^6 CFU Streptococcus pneumoniae serotype 2 infected in semitherapeutic C57BL/6 mouse model assessed as bacterial count in lung at 6 mg/kg, ip measured after 10 day post infection; assay type: functional; conditions: route intraperitoneal
[4] = tested on: Streptococcus pneumoniae; assay: Antibacterial activity against 5 x 10^6 CFU Streptococcus pneumoniae serotype 2 infected in semitherapeutic C57BL/6 mouse model assessed as bacterial count in blood at 6 mg/kg, ip measured after 1 day post infection; assay type: functional; conditions: route intraperitoneal
[5] = tested on: Streptococcus pneumoniae; assay: Antibacterial activity against 5 x 10^6 CFU Streptococcus pneumoniae serotype 2 infected in semitherapeutic C57BL/6 mouse model assessed as bacterial count in liver at 6 mg/kg, ip measured after 1 day post infection; assay type: functional; conditions: route intraperitoneal
[6] = tested on: Streptococcus pneumoniae; assay: Antibacterial activity against low dose 5 x 10^6 CFU Streptococcus pneumoniae serotype 2 infected in semitherapeutic C57BL/6 mouse model assessed as reduction of bacteremia at 6 mg/kg, ip measured after 5 day post infection; assay type: functional, organism-based; design: dose 6 mg/kg
[7] = tested on: Streptococcus pneumoniae; assay: Antibacterial activity against high dose 1.5 x 10^7 CFU Streptococcus pneumoniae serotype 2 infected in semitherapeutic C57BL/6 mouse model assessed as bacterial count in lung at 6 mg/kg, ip measured after 5 day post infection; assay type: functional; conditions: route intraperitoneal
[8] = tested on: Streptococcus pneumoniae; assay: Antibacterial activity against high dose 1.5 x 10^7 CFU Streptococcus pneumoniae serotype 2 infected in semitherapeutic C57BL/6 mouse model assessed as bacterial count in lung at 6 mg/kg, ip measured after 10 day post infection; assay type: functional; conditions: route intraperitoneal
[9] = tested on: Streptococcus pneumoniae; assay: Antibacterial activity against high dose 1.5 x 10^7 CFU Streptococcus pneumoniae serotype 2 infected in semitherapeutic C57BL/6 mouse model assessed as bacterial count in spleen at 6 mg/kg, ip measured after 1 day post infection; assay type: functional; conditions: route intraperitoneal
[10] = tested on: Streptococcus pneumoniae; assay: Antibacterial activity against high dose 1.5 x 10^7 CFU Streptococcus pneumoniae serotype 2 infected in semitherapeutic C57BL/6 mouse model assessed as bacterial count in liver at 6 mg/kg, ip measured after 1 day post infection; assay type: functional; conditions: route intraperitoneal
[11] = tested on: Streptococcus pneumoniae; assay: Antibacterial activity against high dose 1.5 x 10^7 CFU Streptococcus pneumoniae serotype 2 infected in semitherapeutic C57BL/6 mouse model assessed as reduction of bacteremia at 6 mg/kg, ip measured after 10 day post infection; assay type: functional, organism-based; design: dose 6 mg/kg
[12] = tested on: Streptococcus pneumoniae; assay: Antibacterial activity against high dose 1.5 x 10^7 CFU Streptococcus pneumoniae serotype 2 infected in therapeutic C57BL/6 mouse model assessed as bacterial count in lung at 6 mg/kg, ip measured after 4 days post infection; assay type: functional; conditions: route intraperitoneal
[13] = tested on: Streptococcus pneumoniae; assay: Antibacterial activity against high dose 1.5 x 10^7 CFU Streptococcus pneumoniae serotype 2 infected in therapeutic C57BL/6 mouse model assessed as bacterial count in lung at 6 mg/kg, ip measured after 5 day post infection; assay type: functional; conditions: route intraperitoneal
[14] = tested on: Streptococcus pneumoniae; assay: Antibacterial activity against high dose 1.5 x 10^7 CFU Streptococcus pneumoniae serotype 2 infected in therapeutic C57BL/6 mouse model assessed as bacterial count in blood at 6 mg/kg, ip measured after 4 days post infection; assay type: functional; conditions: route intraperitoneal
[15] = tested on: Streptococcus pneumoniae; assay: Antibacterial activity against high dose 1.5 x 10^7 CFU Streptococcus pneumoniae serotype 2 infected in therapeutic C57BL/6 mouse model assessed as reduction of bacteremia at 6 mg/kg, ip measured after 5 day post infection; assay type: functional, organism-based; design: dose 6 mg/kg
[16] = tested on: Streptococcus pneumoniae; assay: Antibacterial activity against low dose 5 x 10^6 CFU Streptococcus pneumoniae serotype 19 infected in semitherapeutic C57BL/6 mouse model assessed as bacterial count in lung at 6 mg/kg, ip measured after 2 days post infection; assay type: functional; conditions: route intraperitoneal
[17] = tested on: Streptococcus pneumoniae; assay: Antibacterial activity against low dose 5 x 10^6 CFU Streptococcus pneumoniae serotype 19 infected in semitherapeutic C57BL/6 mouse model assessed as bacterial count in lung at 6 mg/kg, ip measured after 3 days post infection; assay type: functional; conditions: route intraperitoneal
[18] = tested on: Streptococcus pneumoniae; assay: Antibacterial activity against low dose 5 x 10^6 CFU Streptococcus pneumoniae serotype 19 infected in semitherapeutic C57BL/6 mouse model assessed as bacterial count in lung at 6 mg/kg, ip measured after 5 day post infection; assay type: functional; conditions: route intraperitoneal
[19] = tested on: Streptococcus pneumoniae; assay: Antibacterial activity against low dose 5 x 10^6 CFU Streptococcus pneumoniae serotype 19 infected in semitherapeutic C57BL/6 mouse model assessed as bacteremic mouse at 6 mg/kg, ip measured after 2 days post infection; assay type: functional, organism-based; design: dose 6 mg/kg
[20] = tested on: Streptococcus pneumoniae; assay: Antibacterial activity against high dose 1.5 x 10^7 CFU Streptococcus pneumoniae serotype 19 infected in semitherapeutic C57BL/6 mouse model assessed as bacterial count in lung at 6 mg/kg, ip measured after 1 day post infection; assay type: functional; conditions: route intraperitoneal
[21] = tested on: Streptococcus pneumoniae; assay: Antibacterial activity against high dose 1.5 x 10^7 CFU Streptococcus pneumoniae serotype 19 infected in semitherapeutic C57BL/6 mouse model assessed as bacterial count in lung at 6 mg/kg, ip measured after 4 days post infection; assay type: functional; conditions: route intraperitoneal
[22] = tested on: Streptococcus pneumoniae; assay: Antibacterial activity against high dose 1.5 x 10^7 CFU Streptococcus pneumoniae serotype 19 infected in semitherapeutic C57BL/6 mouse model assessed as bacterial count in lung at 6 mg/kg, ip measured after 5 day post infection; assay type: functional; conditions: route intraperitoneal
[23] = tested on: Streptococcus pneumoniae; assay: Antibacterial activity against high dose 1.5 x 10^7 CFU Streptococcus pneumoniae serotype 19 infected in semitherapeutic C57BL/6 mouse model assessed as bacteremic mice at 6 mg/kg, ip measured after 4 days post infection; assay type: functional, organism-based; design: dose 6 mg/kg
[24] = tested on: Streptococcus pneumoniae; assay: Antibacterial activity against high dose 1.5 x 10^7 CFU Streptococcus pneumoniae serotype 19 infected in semitherapeutic C57BL/6 mouse model assessed as bacteremic mice at 6 mg/kg, ip measured after 5 day post infection; assay type: functional, organism-based; design: dose 6 mg/kg
[25] = tested on: Streptococcus pneumoniae; assay: Antibacterial activity against 1.5 x 10^7 CFU Streptococcus pneumoniae serotype 2 infected in therapeutic C57BL/6 mouse model assessed as survival rate at 6 mg/kg, ip qd beginning 2 days post infection measured after 3 days post infection; assay type: functional; conditions: route intraperitoneal
[26] = tested on: Streptococcus pneumoniae; assay: Antibacterial activity against 1.5 x 10^7 CFU Streptococcus pneumoniae serotype 19 infected in therapeutic C57BL/6 mouse model assessed as survival rate at 6 mg/kg, ip qd beginning at time of infection measured after 6 days post infection; assay type: functional; conditions: route intraperitoneal
[27] = tested on: Streptococcus pneumoniae; assay: Antibacterial activity against 1.5 x 10^7 CFU Streptococcus pneumoniae serotype 2 infected in therapeutic C57BL/6 mouse model assessed as effect on lung permeability at 6 mg/kg, ip measured on day 3 post infection; assay type: functional, organism-based; design: dose 6 mg/kg
[28] = tested on: Streptococcus pneumoniae; assay: Antibacterial activity against 1.5 x 10^7 CFU Streptococcus pneumoniae serotype 2 infected in therapeutic C57BL/6 mouse model assessed as effect on leukocytes infiltration in BALF at 6 mg/kg, ip measured on day 3 post infection; assay type: functional, organism-based; design: dose 6 mg/kg
[29] = tested on: Streptococcus pneumoniae; assay: Antibacterial activity against 1.5 x 10^7 CFU Streptococcus pneumoniae serotype 19 infected in therapeutic C57BL/6 mouse model assessed as increase in compound level in BALF at 6 mg/kg, ip measured on day 3 post infection; assay type: functional, organism-based; design: dose 6 mg/kg
[30] = tested on: Streptococcus pneumoniae; assay: Antibacterial activity against 1.5 x 10^7 CFU Streptococcus pneumoniae serotype 19 infected in therapeutic C57BL/6 mouse model assessed as increase in serum compound level at 6 mg/kg, ip measured on day 3 post infection; assay type: functional, organism-based; design: dose 6 mg/kg

## CCCCCCCCCC(=O)N[C@@H](Cc1c[nH]c2ccccc12)C(=O)N[C@H](CC(N)=O)C(=O)N[C@@H](CC(=O)O)C(=O)N[C@@H]1C(=O)NCC(=O)N[C@@H](CCCN)C(=O)N[C@@H](CC(=O)O)C(=O)N[C@H](C)C(=O)N[C@@H](CC(=O)O)C(=O)NCC(=O)N[C@H](CO)C(=O)N[C@@H]([C@H](C)CC(=O)O)C(=O)N[C@@H](CC(=O)c2ccccc2N)C(=O)O[C@@H]1C
[1]
  log10cfu: 3.6
[2]
  log10cfu: 3.8
[3]
  log10cfu: 2.5
[4]
  log10cfu: 2
[5]
  log10cfu: 1.8
[6]
  Activity: Active
[7]
  log10cfu: 2.2
[8]
  log10cfu: 2.9
[9]
  log10cfu: 1.4
[10]
  log10cfu: 1.2
[11]
  Activity: Active
[12]
  log10cfu: 2.9
[13]
  log10cfu: 2.8
[14]
  log10cfu: 2.6
[15]
  Activity: Active
[16]
  log10cfu: 5.5
[17]
  log10cfu: 5.5
[18]
  log10cfu: 3.5
[19]
  Activity: Active
[20]
  log10cfu: 6.4
[21]
  log10cfu: 4.5
[22]
  log10cfu: 4.7
[23]
  Activity: Active
[24]
  Activity: Active
[25]
  Activity: 70%
[26]
  Activity: 40%
[27]
  Activity: Active
[28]
  Activity: Active
[29]
  Activity: Active
[30]
  Activity: Active

Source: ChEMBL document CHEMBL1240356, “Efficacy profiles of daptomycin for treatment of invasive and noninvasive pulmonary infections with Streptococcus pneumoniae” (2010)
